Measurements reported in patent US20220241437A1, “ATHER[…] AGENTS AND METHODS OF USING THE SAME” (THE GENERAL HOSPITAL CORPORATION, priority 2015, published 2022).
Where two headings read alike, the source gives them in different places.

What was measured:
[1] = test system: atheroma; assay: NIRF / multi-wavelength fluorescence reflectance imaging (FRI) of resected aortas in rabbit atherosclerosis model; assay type: in vivo; conditions: for co-localization in atherosclerotic zones by FRI: MB 1 mg/kg 24 hours and ICG 0.5 mg/kg 0.5 hours before imaging, rabbit m464
Source text: New Zealand white rabbits (3-4 kg, Charles River Laboratories, n=2) were fed a high cholesterol diet (0.3% total cholesterol, 5% peanut oil; Research Diets) and were subjected to an infrarenal abdominal aorta injury using a 3F Fogarty embolectomy balloon (Edwards Lifesciences). The 3F balloon was inserted percutaneously via the femoral artery, inflated to nominal pressure, and withdrawn under tension and repeated. After recovery from the injury, the rabbits were continued on the 0.3% high cholesterol diet, and their total serum cholesterol levels were routinely measured (Hemagen Diagnostics).
24 hours prior to atheroma imaging, 1 mg/kg concentration of MB in a phosphate buffer saline solution was administered to the rabbit subjects intravenously.
28 days after aortic injury and continuation on the high cholesterol diet, the rabbits were anesthetized and imaged using various imaging modalities. An aortic angiography (ARCADIS Varic C-arm fluoroscopy unit, Siemens) was performed on the rabbits with a manual contrast injection. After the angiography, an intravascular ultrasound (IVUS) was performed using a catheter (iLab, Boston Scientific). The IVUS catheter was used with an automated 0.5 mm/second pullback across the previously injured aortic region to assess plaque burden. Finally, the rabbit subjects underwent near-infrared fluorescence optical coherence tomography (NIRF-OCT) imaging.
Following multimodality imaging, the rabbits were euthanized, and their aortas were removed and placed in saline at 4° C. The freshly resected aortas were imaged using multi-wavelength fluorescence reflectance imaging (FRI) with fluorescein isothiocyanite (FITC) and MB having emission wavelengths of 535 nm and 700 nm, respectively. While using the FRI system (Kodak ImageStation 4000, Carestream Health), the excitation source used for triggering FITC's autofluorescence was focused around 470 nm with an exposure time of 4 seconds. MB's near-infrared fluorescence was triggered by excitation wavelengths around 630 nm for 64 seconds. […] The target-to-background ratios(TBRs) were calculated for each ROI as the mean plaque fluorescence divided by the background fluorescence measured in the adjacent normal vessel.
A concentration of 1 mg/kg MB in phosphate buffer saline solution was co-injected with a 0.5 mg/kg solution of indocyanine green (ICG) into the aorta of the rabbit subject, m464, 24 hours and 0.5 hours before imaging, respectively. Fluorescence reflectance imaging (FRI) was performed to evaluate uptake and distribution of MB and ICG. […]
The TBRs were calculated as the mean fluorescence divided by the background fluorescence of the adjacent normal aorta. […]

[2] = Half-life of MB in rabbit bloodstream from fluorescence intensity over time; assay type: in vivo; conditions: blood, intravenous, 1 mg/kg
Procedure: The methylene blue (MB) binding and uptake was evaluated in a rabbit model of atherosclerosis of the abdominal aorta. […] The half-life for MB in rabbit bloodstreams was measured in two subjects, m463 and m464 that had been subjected to a high cholesterol diet and the high inflammation protocol.

[3] = test system: atherosclerotic lesions; assay: Fluorescence microscopy, histology and RAM11 immunohistochemistry of aorta/vessel cross-sections; assay type: in vivo, rabbit
Procedure: A histology analysis for the aortas was then performed. The excised aortas were filled with an optimal cutting temperature compound and then snap frozen on dry ice. Using a cryostat (Leica CM3050 S), 8 μm sections of the aortas were obtained. The tissue sections were stained for hemotoxylin and eosin (H&E), Masson's Trichrome, and Oil Red 0 (ORO) histological imaging. Additionally, immunohistochemistry tests were performed for macrophages (RAM11; Dako).
Unstained tissue sections were imaged with a multi-wavelength fluorescence microscope (Nikon Eclipse 90i) for FITC and MB. FITC's autofluorescence emissions at 535 nm were excited with a 480 nm source, and MB's near-infrared fluorescent emissions at 700 nm were excited with a 630 nm Cy5.5 source.
The co-localization of MB and ICG found through FRI was also verified using high-resolution epifluorescence microscopy of fresh-frozen tissue cross-sections from the areas of interest outlined in the FRI results. […] Further, the MB binding was associated with cellular uptake when evaluating sections counterstained with a fluorescent nuclear stain.
Fluorescent microscopy (FM) was performed on a cross-section of the aorta of m464 in the fluorescein isothiocyanite (FITC) and Cy5 channels. […] The white areas represent the near-infrared fluorescence of MB under a Cy5.5 source. The grey areas represent the autofluorescence of FITC. There is little overlap between the MB and FITC areas, evidencing the unique uptake and binding profile for MB in atherosclerotic structures not targeted by other imaging agents. […] Again, the distinction between the areas of MB binding and FITC autofluorescence indicate MB's utility as an atheroma targeting agent unlike any other. Further, the TBR of MB in FIGS. 6A and 6B illustrates the robustness of the targeting profile of MB.
Moreover, FIGS. 7A-7C show FM images of an axial section of a subject's vessel including a venous thrombus after undergoing vessel injury according to the high inflammation protocol. The subject was injected with a 1 mg/kg MB concentration in a phosphate buffer saline solution 24 hours prior to imaging. […] This again evidences the unique binding pattern that MB may offer for vascular imaging.
MB binding in the aortas of the subjects was also evaluated using traditional histological stains. A tissue cross-section fluorescently imaged to evaluate MB uptake was further treated with a hemotoxylin and eosin (H&E) stain. […] Even less cellular areas were also found to have MB uptake.
Finally, the cross-section was imaged using immunohistochemical-staining techniques. The immunohistochemical stain RAM11 which is a known macrophage marker was used to cross-correlate the MB binding images. […] These areas where not limited to a specific location. For example, one area of consistent MB and RAM11 co-localization was located near the luminal side of internal elastic lamina as well as other regions of the atheroma.

[4] = healthy human volunteers, intravenous (Peter et al. 2000); cited from earlier work
[5] = phosphate buffer saline solution; cited from earlier work

CC1(C)C(/C=C/C=C/C=C/C=C2\N(CCCCS(=O)(=O)O)c3ccc4ccccc4c3C2(C)C)=[N+](CCCCS(=O)(=O)[O-])c2ccc3ccccc3c21 [ICG, Indocyanine green]
co-localization in atherosclerotic zones by FRI [1]: co-localization of MB and ICG in the atherosclerotic zones of the aorta

CN(C)c1ccc2nc3ccc(N(C)C)cc3[s+]c2c1.[Cl-] [MB, [7-(dimethylamino)phenothiazin-3-ylidene]-dimethylazanium chloride]
half-life ([2]; 1 phase exponential decay of fluorescence intensity, read-out: half-life of MB in bloodstream (converted)): 7.35 h | half-life ([2]; mean of m463 and m464, read-out: average of the MB half-life in the rabbits tested (converted)): ~5.25 h | half-life ([2]; rabbit subject m463, 1 phase exponential decay of fluorescence intensity, read-out: half-life of MB in bloodstream (converted)): 3.13 h | half-life ([2]; rabbit subject m463, read-out: half-life of MB in bloodstream (converted)): ~3 h | half-life ([2]; read-out: half-life of MB in bloodstream (converted)): ~7.4 h | deposition in plaques detected by NIRF imaging ([1]; 1 mg/kg intravenous, rabbit atherosclerosis model): can produce deposition of MB in plaques of rabbits | co-localization in atherosclerotic zones by FRI [1]: co-localization of MB and ICG in the atherosclerotic zones of the aorta | target-to-background ratios (TBRs) of aortas ([1]; MB 1 mg/kg i.v. 24 hours before imaging, versus aortas without MB, FRI): higher TBRs than those without MB | targeting to atheroma in FM image of aortic cross-section ([3]; 1 mg/kg i.v. 24 hours before imaging, NIRF absent from normal arterial wall): highly targeted to the atheroma | uptake in vessel with venous thrombus (FM) ([3]; 1 mg/kg in phosphate buffer saline 24 hours prior to imaging): distinct spots or drops along the inner vessel walls and in the venous thrombus | association of uptake with macrophages (RAM11 staining) ([3]; aortic cross-section): associated with areas positive for macrophages in the RAM11 staining | depth of binding in lesions (H&E histology) ([3]; aortic cross-section): seen in specific regions permeating the entire depth of the lesions | localization of uptake by high-resolution epifluorescence microscopy ([3]; fresh-frozen tissue cross-sections): localize in both microscopic lesions and atherosclerotic lesions with greater than 60% stenosis | blood half-life [4]: 5.25 h | molar attenuation coefficient [5]: 73,000 cm^−1/M | quantum yield [5]: 5.3% | quenching threshold [5]: 12.5 µM
